# In ChEMBL document CHEMBL1240509, “Modulators of the hedgehog signaling pathway” (Bioorg Med Chem, 2010):
# Experiment: Agonist activity at hedgehog receptor
# Type: functional
# Settings: not given; call rule not given here
row,SMILES,EC50 [nM]
1,c1ccc2c(Oc3nc(Nc4ccc(N5CCOCC5)cc4)c4ncn(C5CCCCC5)c4n3)cccc2c1 [PURMORPHAMINE],1000
2,CC(C)[C@@H](O)CC[C@@H](C)[C@H]1CC[C@H]2[C@@H]3CC=C4C[C@@H](O)CC[C@]4(C)[C@H]3CC[C@]12C,3000
3,C[C@H](CCCC(C)(C)O)[C@H]1CC[C@H]2[C@@H]3CC=C4C[C@@H](O)CC[C@]4(C)[C@H]3CC[C@]12C,1000
4,CC(C)CC[C@H](O)[C@@H](C)[C@H]1CC[C@H]2[C@@H]3CC=C4C[C@@H](O)CC[C@]4(C)[C@H]3CC[C@]12C,200
5,CN[C@H]1CC[C@H](N(Cc2cccc(-c3ccncc3)c2)C(=O)c2sc3ccccc3c2Cl)CC1,3000
6,CC(C)CCC[C@](C)(O)[C@H]1CC[C@H]2[C@@H]3CC=C4C[C@@H](O)CC[C@]4(C)[C@H]3CC[C@@]21C,100

# Experiment: Inhibition of hedgehog receptor mediated Gli transcription
# Settings: not given
row,SMILES,EC50
1,Cc1c([C@H](C)[C@@H]2NC[C@@H](C)C[C@H]2O)ccc2c1C[C@H]1[C@H]2CC=C2C[C@@H](O)CC[C@@]21C [VERATRAMINE],Not Active

# Same assay, conditions: read-out: EC50
row,SMILES,EC50 [nM]
1,CC1=C2C[C@H]3[C@@H](CC=C4C[C@@H](O[C@@H]5O[C@H](CO)[C@@H](O)[C@H](O)[C@H]5O)CC[C@@]43C)[C@@H]2CC[C@]12O[C@@H]1C[C@H](C)CN[C@H]1[C@H]2C [CYCLOPOSINE],> 700
2,CC1=C2C[C@H]3[C@@H](CC=C4C[C@@H](O)CC[C@@]43C)[C@@H]2CC[C@]12O[C@@H]1C[C@H](C)CN[C@H]1[C@H]2C [CYCLOPAMINE],300
3,CC1=C2C(=O)[C@H]3[C@@H](CC=C4C[C@@H](O)CC[C@@]43C)[C@@H]2CC[C@]12O[C@@H]1C[C@H](C)CN[C@H]1[C@H]2C [JERVINE],500

# Experiment: Inhibition of hedgehog receptor mediated Ptch1 transcription
# Settings: not given
row,SMILES,EC50 [nM]
1,CC1=C2C[C@H]3[C@@H](CC=C4C[C@@H](O)CC[C@@]43C)[C@@H]2CC[C@]12O[C@@H]1C[C@H](C)CN[C@H]1[C@H]2C [CYCLOPAMINE],300

# Experiment: Antagonist activity at hedgehog receptor
# Type: functional
# Settings: not given
row,SMILES,IC50 [nM]
1,C[C@@]12C[C@H]3OC(=O)[C@@H]1CO[C@]14O[C@]5([C@H]2C1=O)[C@@](O)(CC[C@H]1[C@H]4C[C@H]2O[C@]24CC=CC(=O)[C@]14C)C(=O)O[C@@]35C [PHYSALIN F],660
2,"CC1=C2C[C@H]3[C@@H](CCC4=CC(=O)CC[C@@]43C)[C@@H]2CC[C@@]2(C1)O[C@@H]1C[C@H](C)CNC1[C@H]2C (single isomer, unassigned)",200
3,CC1=C2C[C@H]3[C@@H](CC[C@@H]4CNC(=O)CC[C@@]43C)[C@@H]2CC[C@@]2(C1)O[C@@H]1C[C@H](C)CN[C@@H]1[C@H]2C,30
4,CC1=C2C[C@H]3[C@@H](CC[C@@H]4Cc5n[nH]cc5C[C@@]43C)[C@@H]2CC[C@@]2(C1)O[C@@H]1C[C@H](C)CN[C@@H]1[C@H]2C,10

# Results, then the compound that gave them:
row,IC50 [nM],SMILES
1,5000,c1cc(-c2sc(-c3ccncc3)c(-c3ccncc3)c2-c2ccncc2)ccn1
2,13,CS(=O)(=O)c1ccc(C(=O)Nc2ccc(Cl)c(-c3ccccn3)c2)c(Cl)c1 [VISMODEGIB]
3,20,CCCN[C@H]1CC[C@H](N(Cc2cccc(-c3ccncc3)c2)C(=O)c2sc3ccccc3c2Cl)CC1
4,7,CC1=C2C[C@H]3[C@@H](CC[C@@H]4C[C@H](NS(C)(=O)=O)CC[C@@]43C)[C@@H]2CC[C@@]2(C1)O[C@@H]1C[C@H](C)CN[C@@H]1[C@H]2C
5,20,CC1=C2C[C@H]3[C@@H](CC=C4CC(=O)CC[C@@]43C)[C@@H]2CC[C@]12O[C@@H]1C[C@H](C)CN(CCNC(=O)CCCCCNC(=O)CCc3ccccc3)[C@H]1[C@H]2C
6,5000,CN(C)c1ccccc1CN1CCCN(Cc2ccccc2N(C)C)C1c1ccncc1
7,3100,O=C(C[C@@H]1C/C=C/CCC(=O)O[C@H](c2ccccc2)CNC1=O)NCc1ccc(Cl)cc1 [ROBOTNIKININ]
8,800,CCC(C)n1ncn(-c2ccc(N3CCN(c4ccc(OCC5COC(Cn6cncn6)(c6ccc(Cl)cc6Cl)O5)cc4)CC3)cc2)c1=O (stereo not given) [ITRACONAZOLE]
9,30,CCOc1cc(C(=O)Nc2ccc(Cl)c(-c3nc4ccccc4[nH]3)c2)cc(OCC)c1OCC
10,1500,COCCOC(=O)C1=C(C)NC2=C(C(=O)CC(c3ccccc3OC)C2)C1c1cccc(O)c1 (stereo not given)
